Data reported in ChEMBL document CHEMBL1201862, “PubChem BioAssay data set” (2004).
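Cells were grown in 96-well plates and exposed to each compound for 48 hours at five concentrations; endpoints were interpolated linearly between bracketing concentrations, or set to the highest concentration if not reached. GI50: concentration for 50% inhibition of growth.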 The source made the active and inactive calls. No stated cut-off is given here; in the data, active = GI50 up to about 1.1 µM and inactive = higher.

Assays:
Experiment in all cases: DTP human tumour cell line panel, 48 h
[1] = tested on: SNB-78
[2] = tested on: M14
[3] = tested on: RPMI-8226
[4] = tested on: NCI-H226
[5] = tested on: CCRF-CEM
[6] = tested on: COLO 205
[7] = tested on: EKVX
[8] = tested on: ACHN
[9] = tested on: MOLT-4
[10] = tested on: K562
[11] = tested on: HOP-18
[12] = tested on: SK-MEL-28
[13] = tested on: SF-268
[14] = tested on: Malme-3M
[15] = tested on: LOX IMVI
[16] = tested on: UACC-257
[17] = tested on: CAKI-1
[18] = tested on: SF-539
[19] = tested on: RXF 631
[20] = tested on: A549
[21] = tested on: HL-60
[22] = tested on: SK-MEL-2
[23] = tested on: 786-0
[24] = tested on: SW-620
[25] = tested on: SNB-19
[26] = tested on: HCT-15
[27] = tested on: OVCAR-3
[28] = tested on: NCI-H23
[29] = tested on: A498
[30] = tested on: HOP-92
[31] = tested on: SF-295
[32] = tested on: KM12
[33] = tested on: M19-MEL
[34] = tested on: SR
[35] = tested on: OVCAR-4
[36] = tested on: TK-10
[37] = tested on: DLD-1
[38] = tested on: NCI-H460
[39] = tested on: RXF 393
[40] = tested on: SN12C
[41] = tested on: U-251
[42] = tested on: SK-MEL-5
[43] = tested on: IGROV-1
[44] = tested on: UACC-62
[45] = tested on: DMS-273
[46] = tested on: DMS-114
[47] = tested on: KM-20L2
[48] = tested on: LXFL 529
[49] = tested on: HCT-116
[50] = tested on: UO-31
[51] = tested on: SK-OV-3
[52] = tested on: HOP-62
[53] = tested on: OVCAR-5
[54] = tested on: HCC 2998
[55] = tested on: HT-29
[56] = tested on: SNB-75
[57] = tested on: NCI-H522
[58] = tested on: XF498
[59] = tested on: OVCAR-8

SMILES: CC1=C(c2cc(C(=O)Nc3cccc(C(F)(F)F)c3)nc(NC#N)n2)Sc2ccccc2N1
- GI50 [1]: > 100 µM (inactive)
- GI50 [2]: > 100 µM (inactive)
- GI50 [3]: > 100 µM (inactive)
- GI50 [4]: > 100 µM (inactive)
- GI50 [5]: 68.7 µM (inactive)
- GI50 [6]: > 100 µM (inactive)
- GI50 [7]: > 100 µM (inactive)
- GI50 [8]: > 100 µM (inactive)
- GI50 [9]: > 100 µM (inactive)
- GI50 [10]: > 100 µM (inactive)
- GI50 [11]: > 100 µM (inactive)
- GI50 [12]: > 100 µM (inactive)
- GI50 [13]: > 100 µM (inactive)
- GI50 [14]: > 100 µM (inactive)
- GI50 [15]: > 100 µM (inactive)
- GI50 [16]: > 100 µM (inactive)
- GI50 [17]: > 100 µM (inactive)
- GI50 [18]: > 100 µM (inactive)
- GI50 [19]: > 100 µM (inactive)
- GI50 [20]: > 100 µM (inactive)
- GI50 [21]: > 100 µM (inactive)
- GI50 [22]: > 100 µM (inactive)
- GI50 [23]: 97.5 µM (inactive)
- GI50 [24]: > 100 µM (inactive)
- GI50 [25]: > 100 µM (inactive)
- GI50 [26]: > 100 µM
- GI50 [27]: > 100 µM (inactive)
- GI50 [28]: > 100 µM (inactive)
- GI50 [29]: > 100 µM (inactive)
- GI50 [30]: > 100 µM (inactive)
- GI50 [31]: > 100 µM (inactive)
- GI50 [32]: > 100 µM (inactive)
- GI50 [33]: > 100 µM (inactive)
- GI50 [34]: > 100 µM (inactive)
- GI50 [35]: 31.7 µM (inactive)
- GI50 [36]: > 100 µM (inactive)
- GI50 [37]: > 100 µM (inactive)
- GI50 [38]: > 100 µM (inactive)
- GI50 [39]: > 100 µM (inactive)
- GI50 [40]: > 100 µM (inactive)
- GI50 [41]: 86.5 µM (inactive)
- GI50 [42]: > 100 µM (inactive)
- GI50 [43]: > 100 µM (inactive)
- GI50 [44]: > 100 µM (inactive)
- GI50 [45]: > 100 µM (inactive)
- GI50 [46]: > 100 µM (inactive)
- GI50 [47]: > 100 µM (inactive)
- GI50 [48]: > 100 µM (inactive)
- GI50 [49]: > 100 µM (inactive)
- GI50 [50]: > 100 µM (inactive)
- GI50 [51]: > 100 µM (inactive)
- GI50 [52]: > 100 µM (inactive)
- GI50 [53]: > 100 µM (inactive)
- GI50 [54]: > 100 µM (inactive)
- GI50 [55]: > 100 µM (inactive)
- GI50 [56]: > 100 µM (inactive)

SMILES: COC(=O)C1=C(c2ccc(Cl)cc2)C(O)NC(NN)=N1 (stereo not given)
- GI50 [1]: > 100 µM (inactive)
- GI50 [2]: > 100 µM (inactive)
- GI50 [3]: > 100 µM (inactive)
- GI50 [4]: > 100 µM (inactive)
- GI50 [5]: > 100 µM (inactive)
- GI50 [7]: > 100 µM (inactive)
- GI50 [8]: > 100 µM (inactive)
- GI50 [9]: > 100 µM (inactive)
- GI50 [10]: > 100 µM (inactive)
- GI50 [11]: > 100 µM (inactive)
- GI50 [12]: > 100 µM (inactive)
- GI50 [13]: > 100 µM (inactive)
- GI50 [14]: > 100 µM (inactive)
- GI50 [15]: > 100 µM (inactive)
- GI50 [16]: > 100 µM (inactive)
- GI50 [17]: > 100 µM (inactive)
- GI50 [18]: > 100 µM (inactive)
- GI50 [19]: > 100 µM (inactive)
- GI50 [20]: > 100 µM (inactive)
- GI50 [21]: > 100 µM (inactive)
- GI50 [22]: > 100 µM (inactive)
- GI50 [23]: > 100 µM (inactive)
- GI50 [24]: > 100 µM (inactive)
- GI50 [25]: > 100 µM (inactive)
- GI50 [26]: > 100 µM
- GI50 [27]: > 100 µM (inactive)
- GI50 [28]: > 100 µM (inactive)
- GI50 [30]: > 100 µM (inactive)
- GI50 [31]: > 100 µM (inactive)
- GI50 [32]: > 100 µM (inactive)
- GI50 [57]: > 100 µM (inactive)
- GI50 [33]: > 100 µM (inactive)
- GI50 [34]: > 100 µM (inactive)
- GI50 [35]: > 100 µM (inactive)
- GI50 [36]: > 100 µM (inactive)
- GI50 [37]: > 100 µM (inactive)
- GI50 [38]: > 100 µM (inactive)
- GI50 [58]: > 100 µM (inactive)
- GI50 [39]: > 100 µM (inactive)
- GI50 [40]: > 100 µM (inactive)
- GI50 [41]: > 100 µM (inactive)
- GI50 [42]: > 100 µM (inactive)
- GI50 [43]: > 100 µM (inactive)
- GI50 [44]: > 100 µM (inactive)
- GI50 [46]: > 100 µM (inactive)
- GI50 [48]: > 100 µM (inactive)
- GI50 [49]: > 100 µM (inactive)
- GI50 [50]: > 100 µM (inactive)
- GI50 [51]: > 100 µM (inactive)
- GI50 [59]: > 100 µM (inactive)
- GI50 [52]: > 100 µM (inactive)
- GI50 [53]: > 100 µM (inactive)
- GI50 [54]: > 100 µM (inactive)
- GI50 [55]: > 100 µM (inactive)
